Measurements published in ChEMBL document CHEMBL6083219, “Rationally designed febuxostat-based hydroxamic acid and its pH-Responsive nanoformulation elicits anti-tumor activity” (Eur J Med Chem, 2024).
The source made the active and inactive calls. No cut-off for these calls is given here.

Tests used:
[1] = test system: HL-60; type: functional, cell-based; details: Homo sapiens, HL-60, 48 h
[2] = test system: NCI-H1975; type: functional, cell-based; details: Homo sapiens, NCI-H1975, 48 h
[3] = biological target: Xanthine dehydrogenase/oxidase (Bos taurus, UniProt P80457); experiment: Inhibition of bovine milk xanthine oxidase
[4] = test system: MDA-MB-231; experiment: cells; details: Homo sapiens, MDA-MB-231, 48 h
Description: Cytotoxicity against human MDA-MB-231 cells incubated for 48 hrs by MTT assay

[5] = test system: Rattus norvegicus; experiment: Anti-hyperuricemic activity against potassium oxonate-induced hyperuricemia Wistar rat model assessed as decrease in blood urea level at 10 mg/kg measured after 14 days; type: functional, organism-based; details: time 14.0 day
[6] = test system: Rattus norvegicus; experiment: Anti-hyperuricemic activity against potassium oxonate-induced hyperuricemia Wistar rat model assessed as decrease in serum uric acid level at 10 mg/kg measured after 14 days; type: functional, organism-based; details: time 14.0 day
[7] = test system: Rattus norvegicus; experiment: Anti-hyperuricemic activity against potassium oxonate-induced hyperuricemia Wistar rat model assessed as decrease in serum creatinine level at 10 mg/kg measured after 14 days; type: functional, organism-based; details: time 14.0 day
[8] = test system: HL-60; experiment: Downregulation of mTOR expression level in human HL-60 cells at 0.5 to 2 uM by Western blotting analysis; type: functional, cell-based; details: dose 0.5-2 µM

Chain of Xanthine dehydrogenase/oxidase (P80457 whole entry): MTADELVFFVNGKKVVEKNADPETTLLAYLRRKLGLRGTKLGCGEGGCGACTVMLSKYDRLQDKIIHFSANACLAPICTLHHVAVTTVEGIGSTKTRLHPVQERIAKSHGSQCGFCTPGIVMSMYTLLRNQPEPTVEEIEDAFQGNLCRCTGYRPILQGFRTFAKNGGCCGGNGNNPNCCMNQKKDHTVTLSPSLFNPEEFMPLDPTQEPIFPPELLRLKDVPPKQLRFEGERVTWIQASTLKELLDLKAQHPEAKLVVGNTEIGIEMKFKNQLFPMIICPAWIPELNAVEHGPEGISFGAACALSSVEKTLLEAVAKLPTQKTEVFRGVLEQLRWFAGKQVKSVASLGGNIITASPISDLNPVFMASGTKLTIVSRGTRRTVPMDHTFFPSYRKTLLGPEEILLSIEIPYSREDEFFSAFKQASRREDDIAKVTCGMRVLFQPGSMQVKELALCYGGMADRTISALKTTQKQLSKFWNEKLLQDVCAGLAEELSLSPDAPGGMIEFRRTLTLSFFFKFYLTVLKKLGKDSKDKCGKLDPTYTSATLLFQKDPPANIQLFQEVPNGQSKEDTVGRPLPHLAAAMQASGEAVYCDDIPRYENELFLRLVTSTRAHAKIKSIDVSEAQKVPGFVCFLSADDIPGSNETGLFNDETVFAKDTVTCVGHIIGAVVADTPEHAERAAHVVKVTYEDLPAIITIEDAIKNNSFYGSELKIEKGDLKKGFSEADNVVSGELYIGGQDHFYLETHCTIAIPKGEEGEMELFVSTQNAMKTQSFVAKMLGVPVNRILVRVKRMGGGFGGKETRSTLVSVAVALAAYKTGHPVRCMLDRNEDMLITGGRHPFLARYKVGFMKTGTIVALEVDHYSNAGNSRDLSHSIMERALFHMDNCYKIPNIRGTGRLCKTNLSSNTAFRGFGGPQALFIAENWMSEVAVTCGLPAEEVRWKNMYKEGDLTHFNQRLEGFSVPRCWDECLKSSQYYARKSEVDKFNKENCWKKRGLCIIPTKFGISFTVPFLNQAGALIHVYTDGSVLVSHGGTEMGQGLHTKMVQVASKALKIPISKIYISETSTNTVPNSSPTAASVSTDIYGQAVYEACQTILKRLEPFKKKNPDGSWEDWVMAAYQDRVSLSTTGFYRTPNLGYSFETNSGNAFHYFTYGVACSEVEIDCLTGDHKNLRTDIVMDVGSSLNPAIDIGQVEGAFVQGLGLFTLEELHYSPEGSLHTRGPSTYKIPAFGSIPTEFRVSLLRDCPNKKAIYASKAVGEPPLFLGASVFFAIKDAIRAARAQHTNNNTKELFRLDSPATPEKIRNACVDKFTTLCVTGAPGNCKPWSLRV

## Cc1nc(-c2ccc(OCC(C)C)c(C#N)c2)sc1C(=O)NCc1ccc(C(=O)Nc2ccccc2N)cc1
[1]
  IC50: 1.01 µM
[2]
  IC50: 18.3 µM
[3]
  IC50: > 2 µM
[4]
  IC50: 9.63 µM

## Cc1nc(-c2ccc(OCC(C)C)c(C#N)c2)sc1C(=O)NCCCCCC(=O)NO
[1]
  IC50: 1.29 µM
[2]
  IC50: 6.77 µM
[3]
  IC50: 0.0062 µM
[4]
  IC50: 6.35 µM

## Cc1nc(-c2ccc(OCC(C)C)c(C#N)c2)sc1C(=O)NCc1ccc(C(=O)NO)cc1
[1]
  IC50: 0.805 µM
[2]
  IC50: 11.4 µM
[3]
  IC50: 0.021 µM
[4]
  IC50: 4.09 µM

## Cc1nc(-c2ccc(OCC(C)C)c(C#N)c2)sc1C(=O)NCc1ccc(NC(=O)CCCCCC(=O)Nc2ccccc2N)cc1
[1]
  IC50: 11.8 µM
[2]
  IC50: 28.3 µM
[3]
  IC50: > 2 µM
[4]
  IC50: 19.6 µM

## Cc1nc(-c2ccc(OCC(C)C)c(C#N)c2)sc1C(=O)O [FEBUXOSTAT]
[5]
  Activity: Active
[1]
  IC50: > 100 µM
[6]
  Activity: Active
[2]
  IC50: > 100 µM
[7]
  Activity: Active
[4]
  IC50: > 100 µM

## Cc1nc(-c2ccc(OCC(C)C)c(C#N)c2)sc1C(=O)Nc1ccccc1N
[1]
  IC50: 1.26 µM
[2]
  IC50: > 50 µM
[3]
  IC50: 0.076 µM
[4]
  IC50: > 50 µM

## Cc1nc(-c2ccc(OCC(C)C)c(C#N)c2)sc1C(=O)NCc1ccc(NC(=O)CCCCCCCC(=O)NO)cc1
[1]
  IC50: > 50 µM
[2]
  IC50: 18.7 µM
[3]
  IC50: > 2 µM
[4]
  IC50: 31.5 µM

## Cc1nc(-c2ccc(OCC(C)C)c(C#N)c2)sc1C(=O)NCCCCCCC(=O)Nc1ccccc1N
[1]
  IC50: 1.54 µM
[2]
  IC50: > 50 µM
[3]
  IC50: 0.85 µM
[4]
  IC50: 41.1 µM

## Cc1nc(-c2ccc(OCC(C)C)c(C#N)c2)sc1C(=O)NCCCCCC(=O)Nc1ccccc1N
[1]
  IC50: 1.71 µM
[2]
  IC50: 18.2 µM
[3]
  IC50: 0.7 µM
[4]
  IC50: 7.08 µM

## Cc1nc(-c2ccc(OCC(C)C)c(C#N)c2)sc1C(=O)NCc1ccc(NC(=O)CCCCCCCCC(=O)NO)cc1
[1]
  IC50: 3.04 µM
[2]
  IC50: 8.61 µM
[3]
  IC50: > 2 µM
[4]
  IC50: > 50 µM

## Cc1nc(-c2ccc(OCC(C)C)c(C#N)c2)sc1C(=O)NCc1ccc(NC(=O)CCCCCCC(=O)Nc2ccccc2N)cc1
[1]
  IC50: 1.58 µM
[2]
  IC50: 9.36 µM
[3]
  IC50: > 2 µM
[4]
  IC50: 5.55 µM

## O=C(CCCCCCC(=O)Nc1ccccc1)NO
[8]
  Activity: Active

## Cc1nc(-c2ccc(OCC(C)C)c(C#N)c2)sc1C(=O)NCc1ccc(C(=O)NCCCCCCC(=O)Nc2ccccc2N)cc1
[1]
  IC50: 0.696 µM
[2]
  IC50: > 50 µM
[3]
  IC50: > 2 µM
[4]
  IC50: > 50 µM

## Cc1nc(-c2ccc(OCC(C)C)c(C#N)c2)sc1C(=O)NCc1ccc(C(=O)NCCCCCCC(=O)NO)cc1
[1]
  IC50: 0.56 µM
[2]
  IC50: > 50 µM
[3]
  IC50: > 2 µM
[4]
  IC50: 9.9 µM

## Cc1nc(-c2ccc(OCC(C)C)c(C#N)c2)sc1C(=O)NCc1ccc(NC(=O)CCCCCCC(=O)NO)cc1
[1]
  IC50: 3.42 µM
[2]
  IC50: 12.6 µM
[3]
  IC50: > 2 µM
[4]
  IC50: 12.4 µM

## Cc1nc(-c2ccc(OCC(C)C)c(C#N)c2)sc1C(=O)NO
[1]
  IC50: 10.6 µM
[2]
  IC50: > 50 µM
[3]
  IC50: 0.0033 µM
[4]
  IC50: > 50 µM

## Cc1nc(-c2ccc(OCC(C)C)c(C#N)c2)sc1C(=O)NCc1ccc(NC(=O)CCCCCCCC(=O)Nc2ccccc2N)cc1
[1]
  IC50: 1.64 µM
[2]
  IC50: 11.2 µM
[3]
  IC50: > 2 µM
[4]
  IC50: 3.81 µM

## Cc1nc(-c2ccc(OCC(C)C)c(C#N)c2)sc1C(=O)NCc1ccc(NC(=O)CCCCCC(=O)NO)cc1
[1]
  IC50: 18 µM
[2]
  IC50: > 50 µM
[3]
  IC50: > 2 µM
[4]
  IC50: > 50 µM

## Cc1nc(-c2ccc(OCC(C)C)c(C#N)c2)sc1C(=O)NCc1ccc(NC(=O)CCCCCCCCC(=O)Nc2ccccc2N)cc1
[1]
  IC50: 4.25 µM
[2]
  IC50: 28.8 µM
[3]
  IC50: > 2 µM
[4]
  IC50: 3.38 µM
